According to article PMC9080489, “Synthesis and biological evaluation of 2-aryl-benzimidazole derivatives of dehydroabietic acid as novel tubulin polymerization inhibitors” (RSC Advances, 2018):
Read-outs that look alike come from different tables or passages of the source.

Legend:
[1] = system: mouse colon cancer cell line (CT-26); assay: MTT cytotoxic assay, CT-26; assay type: cell-based; conditions: read-out: IC50 CT-26
Description: (§1) The in vitro antiproliferative activity of DAA derivatives (1–5, 6a–k, 7a–k) were evaluated by MTT assay against human hepatocarcinoma cell line (SMMC-7721), human breast cancer cell line (MDA-MB-231), human cervical carcinoma cell line (HeLa), mouse colon cancer cell line (CT-26) and human normal hepatocyte cell line (QSG-7701). Nocodazole was co-assayed as the positive control and DMEM culture medium containing 0.1% DMSO was used as negative control. The results of the tested compounds expressed as IC50 values (concentration required to inhibit tumor cell proliferation by 50%) were presented in Table 1.
(§2) The human hepatocarcinoma cell line (SMMC-7721), human breast cancer cell line (MDA-MB-231), human cervical carcinoma cell line (HeLa), mouse colon cancer cell line (CT-26) and human normal hepatocyte cells (QSG-7701) used in this study were all obtained from Keygene Biotech., China. These cell lines were maintained in DMEM medium supplemented with 10% heat-inactivated fetal bovine serum in a humidified atmosphere of 5% CO2 at 37 °C.
(§3) The in vitro cytotoxic activities of the benzimidazole derivatives of dehydroabietic acid were evaluated against tested cell lines via the MTT colorimetric method. Briefly, different tumor cells were grown in DMEM medium supplemented with 10% fetal bovine serum, penicillin (100 U mL^−1), and streptomycin (50 μg mL^−1). Cells were harvested at log phase of growth and seeded in 96-well plates (100 μL per well at a density of 2 × 10^5 cells mL^−1). After 24 h incubation at 37 °C and 5% CO2 to allow cell attachment, cultures were exposed to various concentrations of the isolated compounds for 48 h. Finally, MTT solution (2.5 mg mL^−1 in PBS) was added (40 μL per well). Plates were further incubated for 4 h at 37 °C, and the formazan crystals formed were dissolved by adding 150 μL per well of DMSO. Absorption at 570 nm was measured with an ELISA plate reader. The results were expressed as IC50 values with standard deviations, which was defined as the concentration at which 50% survival of cells was discerned. Nocodazole was co-assayed as positive control.

[2] = system: human cervical carcinoma cell line (HeLa); assay: MTT cytotoxic assay, HeLa; assay type: cell-based; conditions: read-out: IC50 HeLa
Description: as §1, §2, §3

[3] = system: human hepatocarcinoma cell line (SMMC-7721); assay: MTT cytotoxic assay, SMMC-7721; assay type: cell-based; conditions: read-out: IC50 SMMC-7721
Description: as §1, §2, §3

[4] = system: human breast cancer cell line (MDA-MB-231); assay: MTT cytotoxic assay, MDA-MB-231; assay type: cell-based; conditions: read-out: IC50 MDA-MB-231
Description: as §1, §2, §3

[5] = system: human normal hepatocyte cell line (QSG-7701); assay: MTT cytotoxic assay, QSG-7701; assay type: cell-based; conditions: QSG7701, 48 h exposure
Description: as §1, §2, §3

[6] = Mus musculus, CT26, 48 h, MTT, 48 h exposure
[7] = Homo sapiens, SMMC-7721, 48 h, MTT, 48 h exposure

SMILES | melting point [°C] | IC50 [1, 6] [µM] | IC50 ([2]; MTT, 48 h exposure) [µM] | IC50 [3, 7] [µM] | IC50 ([4]; MDA-MB-231, MTT, 48 h exposure) [µM] | IC50 ([1]; Mus musculus, CT26, 48 h) [µM] | IC50 ([2]; 48 h) [µM] | IC50 ([3]; Homo sapiens, SMMC-7721, 48 h) [µM] | IC50 ([4]; MDA-MB-231, 48 h) [µM] | IC50 [5] [µM] | IC50 ([1]; MTT, 48 h exposure) [µM] | IC50 ([3]; MTT, 48 h exposure) [µM]
CC(C)c1ccc2c(c1)CC[C@H]1[C@](C)(C(=O)O)CCC[C@]21C [Compound 1, Dehydroabietic acid] | – | > 50 | > 50 | > 50 | > 50 | – | – | – | – | – | – | –
COC(=O)[C@]1(C)CCC[C@]2(C)c3ccc(C(C)C)cc3CCC12 (some centres unmarked) [Compound 2] | – | > 50 | > 50 | > 50 | > 50 | – | – | – | – | – | – | –
COC(=O)[C@]1(C)CCC[C@]2(C)c3cc(Br)c(C(C)C)cc3CCC12 (some centres unmarked) [Compound 3] | – | > 50 | > 50 | > 50 | > 50 | – | – | – | – | – | – | –
COC(=O)[C@]1(C)CCC[C@]2(C)c3cc(Br)c([N+](=O)[O-])c([N+](=O)[O-])c3CCC12 (some centres unmarked) [Compound 4, methyl 12-bromo-13,14-dinitro-deisopropyldehydroabietate] | – | – | – | – | – | 35.1 ± 3.87 | > 50 | 31.8 ± 3.22 | 38.8 ± 2.15 | – | – | –
COC(=O)[C@]1(C)CCC[C@]2(C)c3cc(Br)c(N)c(N)c3CCC12 (some centres unmarked) [Compound 5] | – | 38.5 ± 3.79 | 43.4 ± 2.81 | > 50 | > 50 | – | – | – | – | – | – | –
COC(=O)[C@]1(C)CCC[C@]2(C)c3cc(Br)c4nc(-c5ccccc5)[nH]c4c3CCC12 (some centres unmarked) [Compound 6a, Methyl 2′-phenyl-12-bromo-13,14-imidazolyl-deisopropyl-dehydroabietate] | 123 to 125 | 6.34 ± 0.83 | 16.2 ± 1.73 | 12.5 ± 0.45 | 41.7 ± 2.06 | – | – | – | – | > 50 | – | –
COC(=O)[C@]1(C)CCC[C@]2(C)c3cc(Br)c4nc(-c5ccc(C)cc5)[nH]c4c3CCC12 (some centres unmarked) [Compound 6b, Methyl 2′-(p-tolyl)-12-bromo-13,14-imidazolyl-deisopropyl-dehydroabietate] | 143 to 145 | 25.3 ± 4.96 | > 50 | > 50 | > 50 | – | – | – | – | – | – | –
COC(=O)[C@]1(C)CCC[C@]2(C)c3cc(Br)c4nc(-c5ccc(F)cc5)[nH]c4c3CCC12 (some centres unmarked) [Compound 6c, Methyl 2′-(4-fluorophenyl)-12-bromo-13,14-imidazolyl-deisopropyl-dehydroabietate] | 149 to 151 | < 5 | 8.01 ± 0.76 | – | 18.2 ± 1.2 | – | – | – | – | > 50 | 2.82 ± 0.97 | –
COC(=O)[C@]1(C)CCC[C@]2(C)c3cc(Br)c4nc(-c5cccc(F)c5)[nH]c4c3CCC12 (some centres unmarked) [Compound 6d, Methyl 2′-(3-fluorophenyl)-12-bromo-13,14-imidazolyl-deisopropyl-dehydroabietate] | 142 to 144 | < 5 | 17.7 ± 3.02 | < 5 | 12 ± 1.31 | – | – | – | – | > 50 | 3.39 ± 0.33 | 5.27 ± 0.27
COC(=O)[C@]1(C)CCC[C@]2(C)c3cc(Br)c4nc(-c5ccccc5F)[nH]c4c3CCC12 (some centres unmarked) [Compound 6e, Methyl 2′-(2-fluorophenyl)-12-bromo-13,14-imidazolyl-deisopropyl-dehydroabietate] | 138 to 139 | > 50 | > 50 | 12.3 ± 2.46 | > 50 | – | – | – | – | – | – | –
COC(=O)Nc1nc2ccc(C(=O)c3cccs3)cc2[nH]1 [Nocodazole, nocodazole, reference compound] | – | 1.37 ± 0.11 | 0.87 ± 0.05 | 0.92 ± 0.07 | 0.76 ± 0.06 | – | – | – | – | 13.8 ± 1.08 | – | –

Further lines, with some results ahead:

melting point [°C] | SMILES | IC50 [1, 6] [µM] | IC50 ([2]; MTT, 48 h exposure) [µM] | IC50 [3, 7] [µM] | IC50 ([4]; MDA-MB-231, MTT, 48 h exposure) [µM] | IC50 ([1]; Mus musculus, CT26, 48 h) [µM] | IC50 ([2]; 48 h) [µM] | IC50 ([3]; Homo sapiens, SMMC-7721, 48 h) [µM] | IC50 ([4]; MDA-MB-231, 48 h) [µM] | IC50 [5] [µM] | IC50 ([1]; MTT, 48 h exposure) [µM] | IC50 ([3]; MTT, 48 h exposure) [µM]
139 to 141 | COC(=O)[C@]1(C)CCC[C@]2(C)c3cc(Br)c4nc(-c5ccc(Cl)cc5)[nH]c4c3CCC12 (some centres unmarked) [Compound 6f, Methyl 2′-(4-chlorophenyl)-12-bromo-13,14-imidazolyl-deisopropyl-dehydroabietate] | > 50 | > 50 | 16.5 ± 1.87 | 33.7 ± 4.7 | – | – | – | – | – | – | –
142 to 143 | COC(=O)[C@]1(C)CCC[C@]2(C)c3cc(Br)c4nc(-c5ccccc5Cl)[nH]c4c3CCC12 (some centres unmarked) [Compound 6g, Methyl 2′-(2-chlorophenyl)-12-bromo-13,14-imidazolyl-deisopropyl-dehydroabietate] | > 50 | > 50 | 40.8 ± 3.32 | 19.2 ± 0.93 | – | – | – | – | – | – | –
141 to 142 | COC(=O)[C@]1(C)CCC[C@]2(C)c3cc(Br)c4nc(-c5ccc(Br)cc5)[nH]c4c3CCC12 (some centres unmarked) [Compound 6h, Methyl 2′-(4-bromophenyl)-12-bromo-13,14-imidazolyl-deisopropyl-dehydroabietate] | > 50 | > 50 | 16.6 ± 1.4 | 35.3 ± 1.77 | – | – | – | – | – | – | –
140 to 142 | COC(=O)[C@]1(C)CCC[C@]2(C)c3cc(Br)c4nc(-c5ccc(OC)cc5)[nH]c4c3CCC12 (some centres unmarked) [Compound 6i, Methyl 2′-(4-methoxyphenyl)-12-bromo-13,14-imidazolyl-deisopropyl-dehydroabietate] | 21.2 ± 2.23 | > 50 | > 50 | > 50 | – | – | – | – | – | – | –
139 to 140 | COC(=O)[C@]1(C)CCC[C@]2(C)c3cc(Br)c4nc(-c5c[nH]c6ccccc56)[nH]c4c3CCC12 (some centres unmarked) [Compound 6k, Methyl 2′-(1H-indol-3-yl)-12-bromo-13,14-imidazolyl-deisopropyl-dehydroabietate] | – | 0.98 ± 0.11 | – | 0.56 ± 0.13 | – | – | – | – | 8.43 ± 1.06 | – | –
133 to 135 | COC(=O)[C@]1(C)CCC[C@]2(C)c3cc(-c4cc(OC)c(OC)c(OC)c4)c4nc(-c5ccc(C)cc5)[nH]c4c3CCC12 (some centres unmarked) [Compound 7b, Methyl 2′-(p-tolyl)-12-(3,4,5-trimethoxyphenyl)-13,14-imidazolyl-deisopropyl-dehydroabietate] | 15.6 ± 1.57 | > 50 | > 50 | > 50 | – | – | – | – | – | – | –
155 to 157 | COC(=O)[C@]1(C)CCC[C@]2(C)c3cc(-c4cc(OC)c(OC)c(OC)c4)c4nc(-c5ccccc5F)[nH]c4c3CCC12 (some centres unmarked) [Compound 7e, Methyl 2′-(2-fluorophenyl)-12-(3,4,5-trimethoxyphenyl)-13,14-imidazolyl-deisopropyl-dehydroabietate] | 10.4 ± 1.91 | 18.3 ± 2.98 | > 50 | 18.2 ± 1.32 | – | – | – | – | – | – | –
157 to 159 | COC(=O)[C@]1(C)CCC[C@]2(C)c3cc(-c4cc(OC)c(OC)c(OC)c4)c4nc(-c5ccccc5Cl)[nH]c4c3CCC12 (some centres unmarked) [Compound 7g, Methyl 2′-(2-chlorophenyl)-12-(3,4,5-trimethoxyphenyl)-13,14-imidazolyl-deisopropyl-dehydroabietate] | 13.4 ± 2.35 | > 50 | > 50 | 15.7 ± 0.87 | – | – | – | – | – | – | –
153 to 155 | COC(=O)[C@]1(C)CCC[C@]2(C)c3cc(-c4cc(OC)c(OC)c(OC)c4)c4nc(-c5ccc(OC)cc5)[nH]c4c3CCC12 (some centres unmarked) [Compound 7i, Methyl 2′-(4-methoxyphenyl)-12-(3,4,5-trimethoxyphenyl)-13,14-imidazolyl-deisopropyl-dehydroabietate] | 23.5 ± 2.38 | > 50 | > 50 | > 50 | – | – | – | – | – | – | –
189 to 191 | COC(=O)[C@]1(C)CCC[C@]2(C)c3cc(-c4cc(OC)c(OC)c(OC)c4)c4nc(-c5ccc6[nH]ccc6c5)[nH]c4c3CCC12 (some centres unmarked) [Compound 7j, Methyl 2′-(1H-indol-5-yl)-12-(3,4,5-trimethoxyphenyl)-13,14-imidazolyl-deisopropyl-dehydroabietate] | – | 3.75 ± 0.78 | – | 0.83 ± 0.2 | – | – | – | – | 12.8 ± 1.27 | – | –
199 to 201 | COC(=O)[C@]1(C)CCC[C@]2(C)c3cc(-c4cc(OC)c(OC)c(OC)c4)c4nc(-c5c[nH]c6ccccc56)[nH]c4c3CCC12 (some centres unmarked) [Compound 7k, Methyl 2′-(1H-indol-3-yl)-12-(3,4,5-trimethoxyphenyl)-13,14-imidazolyl-deisopropyl-dehydroabietate] | – | 5.86 ± 0.63 | – | 0.21 ± 0.02 | – | – | – | – | 11.8 ± 2.12 | – | –
